# Results reported in US11753407B2, “Compounds for treating spinal muscular atrophy” (PTC Therapeutics, Inc., priority 2012, dated 2023).
# Assays:
# [1] = test system: SMN2 minigene mRNA (SMN2-A minigene) in HEK293H cells; test: SMN2 minigene mRNA splicing RT-qPCR assay in cultured cells; type: cell-based, human; conditions: Homo sapiens, HEK293-H; concentration increasing full length SMN2 mRNA 1.5-fold relative to vehicle-treated cells; HEK293H cells with SMN2-A minigene, 24 hours, 7-point concentration data; read-out: EC1.5x for production of full length SMN2 mRNA
# Method in brief: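 EC1.5× = concentration raising full-length SMN2 minigene mRNA 1.5-fold over vehicle, from 7-point curves in duplicate. Stably transfected HEK293H cells exposed 24 h at 37 °C; lysates assayed by multiplex RT-qPCR, minigene FL signal normalized to GAPDH via modified ΔΔCt.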
# [2] = test system: Smn protein in SMA patient fibroblast cells (GM03813); test: Smn protein assay in cultured cells (SMN HTRF); type: cell-based, human; conditions: SMA patient fibroblast cells, 48 hours; for EC1.5x for Smn protein expression: 7-point concentration curve, SMN HTRF, concentration producing 1.5 times Smn protein vs DMSO vehicle control; for maximum fold (Fold) increase of Smn protein: 7-point concentration data, fold relative to vehicle control
# Method in brief: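 Smn protein quantified by HTRF with anti-SMN d2/kryptate pair, 665/620 nm ratio blank-corrected, in RIPA lysates of GM03813 fibroblasts after 48 h compound exposure (7 concentrations, 3.16-fold steps, triplicates). Values: concentration producing 1.5× vehicle Smn level, and maximal fold increase.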
melting point [°C],Structure (SMILES),EC (1.5-fold increase) [1] [µM],EC1.5x for Smn protein expression [2],maximum fold (Fold) increase of Smn protein [2]
242 to 244,"Cc1cn2nc(-c3cc(=O)n4cc(C#CCN)ccc4n3)cc2c(C)n1 [Compound 740, 7-(3-aminoprop-1-yn-1-yl)-2-(4,6-dimethylpyrazolo[1,5-a]pyrazin-2-yl)-4H-pyrido[1,2-a]pyrimidin-4-one]",0.3 to 1,*** (an EC1.5× between >0.3 μM and ≤1 μM is indicated by three stars (***)),***** (a fold increase >1.65 is indicated by five stars (*****))
170 to 172,"Cc1cc(-c2cc(=O)n3cc(N4CCN[C@H](C)C4)ccc3n2)cc2cn(C)nc12 [Compound 741, 2-(2,7-dimethyl-2H-indazol-5-yl)-7-[(3R)-3-methylpiperazin-1-yl]-4H-pyrido[1,2-a]pyrimidin-4-one]",< 0.1,**** (an EC1.5x≤0.3 μM is indicated by four stars (****)),***** (a fold increase >1.65 is indicated by five stars (*****))
218 to 221,"Cc1cn2nc(-c3cc(=O)n4cc(C5=CC(C)(C)NC(C)(C)C5)ccc4n3)cc2c(C)n1 [Compound 744, 2-(4,6-dimethylpyrazolo[1,5-a]pyrazin-2-yl)-7-(2,2,6,6-tetramethyl-1,2,3,6-tetrahydropyridin-4-yl)-4H-pyrido[1,2-a]pyrimidin-4-one]",< 0.1,*** (an EC1.5× between >0.3 μM and ≤1 μM is indicated by three stars (***)),*** (a fold increase between >1.35 and ≤1.5 is indicated by three stars (***))
255 to 258,"CCc1nc(C)cn2nc(-c3cc(=O)n4cc(C5=CC(C)(C)NC(C)(C)C5)ccc4n3)cc12 [Compound 745, 2-(4-ethyl-6-methylpyrazolo[1,5-a]pyrazin-2-yl)-7-(2,2,6,6-tetramethyl-1,2,3,6-tetrahydropyridin-4-yl)-4H-pyrido[1,2-a]pyrimidin-4-one]",< 0.1,**** (an EC1.5x≤0.3 μM is indicated by four stars (****)),***** (a fold increase >1.65 is indicated by five stars (*****))
239 to 242,"Cc1cn2nc(-c3cc(=O)n4cc(N5C[C@H]6CNC[C@H]6C5)ccc4n3)cc2c(C)n1 [Compound 746, 2-(4,6-dimethylpyrazolo[1,5-a]pyrazin-2-yl)-7-[(3aR,6aS)-hexahydropyrrolo[3,4-c]pyrrol-2(1H)-yl]-4H-pyrido[1,2-a]pyrimidin-4-one]",< 0.1,**** (an EC1.5x≤0.3 μM is indicated by four stars (****)),***** (a fold increase >1.65 is indicated by five stars (*****))
246 to 249,"CCc1nc(C)cn2nc(-c3cc(=O)n4cc(N5C[C@H]6CNC[C@H]6C5)ccc4n3)cc12 [Compound 747, 2-(4-ethyl-6-methylpyrazolo[1,5-a]pyrazin-2-yl)-7-[(3aR,6aS)-hexahydropyrrolo[3,4-c]pyrrol-2(1H)-yl]-4H-pyrido[1,2-a]pyrimidin-4-one]",< 0.1,**** (an EC1.5x≤0.3 μM is indicated by four stars (****)),***** (a fold increase >1.65 is indicated by five stars (*****))
238 to 241,"CCc1nc(C)cn2cc(-c3cc(=O)n4cc(N5C[C@@H](C)N[C@@H](C)C5)ccc4n3)cc12 [Compound 748, 7-[(3R,5S)-3,5-dimethylpiperazin-1-yl]-2-(1-ethyl-3-methylpyrrolo[1,2-a]pyrazin-7-yl)-4H-pyrido[1,2-a]pyrimidin-4-one]",< 0.1,**** (an EC1.5x≤0.3 μM is indicated by four stars (****)),***** (a fold increase >1.65 is indicated by five stars (*****))
200 to 202,"CCc1nc(C)cn2cc(-c3cc(=O)n4cc(N5CCCNCC5)ccc4n3)cc12 [Compound 749, 7-(1,4-diazepan-1-yl)-2-(1-ethyl-3-methylpyrrolo[1,2-a]pyrazin-7-yl)-4H-pyrido[1,2-a]pyrimidin-4-one]",< 0.1,**** (an EC1.5x≤0.3 μM is indicated by four stars (****)),***** (a fold increase >1.65 is indicated by five stars (*****))
308 to 310,"Cc1cc(-c2cc(=O)n3cc(N4CCN[C@@H](C)C4)ccc3n2)cc2cn(C)nc12 [Compound 750, 2-(2,7-dimethyl-2H-indazol-5-yl)-7-[(3S)-3-methylpiperazin-1-yl]-4H-pyrido[1,2-a]pyrimidin-4-one]",< 0.1,**** (an EC1.5x≤0.3 μM is indicated by four stars (****)),***** (a fold increase >1.65 is indicated by five stars (*****))
202 to 204,"Cc1cc(-c2cc(=O)n3cc(N4CCN(C)[C@@H](C)C4)ccc3n2)cc2cn(C)nc12 [Compound 751, 2-(2,7-dimethyl-2H-indazol-5-yl)-7-[(3S)-3,4-dimethylpiperazin-1-yl]-4H-pyrido[1,2-a]pyrimidin-4-one]",< 0.1,**** (an EC1.5x≤0.3 μM is indicated by four stars (****)),***** (a fold increase >1.65 is indicated by five stars (*****))
208 to 210,"Cc1cc(-c2cc(=O)n3cc(C4CCN(C)CC4)ccc3n2)cc2cn(C)nc12 [Compound 752, 2-(2,7-dimethyl-2H-indazol-5-yl)-7-(1-methylpiperidin-4-yl)-4H-pyrido[1,2-a]pyrimidin-4-one]",< 0.1,**** (an EC1.5x≤0.3 μM is indicated by four stars (****)),***** (a fold increase >1.65 is indicated by five stars (*****))
162 to 164,"CCN1CCC(c2ccc3nc(-c4cc(C)c5nn(C)cc5c4)cc(=O)n3c2)CC1 [Compound 753, 2-(2,7-dimethyl-2H-indazol-5-yl)-7-(1-ethylpiperidin-4-yl)-4H-pyrido[1,2-a]pyrimidin-4-one]",< 0.1,**** (an EC1.5x≤0.3 μM is indicated by four stars (****)),***** (a fold increase >1.65 is indicated by five stars (*****))
233 to 243,"Cc1cc(N2CCNCC2)cn2c(=O)cc(-c3ccc4nn(C)cc4c3)nc12 [Compound 754, 9-methyl-2-(2-methyl-2H-indazol-5-yl)-7-(piperazin-1-yl)-4H-pyrido[1,2-a]pyrimidin-4-one]",< 0.1,**** (an EC1.5x≤0.3 μM is indicated by four stars (****)),***** (a fold increase >1.65 is indicated by five stars (*****))
226 to 228,"Cc1cn2nc(-c3cc(=O)n4cc(N5CC(N(C)C)C5)ccc4n3)cc2c(C)n1 [Compound 757, 7-[3-(dimethylamino)azetidin-1-yl]-2-(4,6-dimethylpyrazolo[1,5-a]pyrazin-2-yl)-4H-pyrido[1,2-a]pyrimidin-4-one]",0.3 to 1,*** (an EC1.5× between >0.3 μM and ≤1 μM is indicated by three stars (***)),**** (a fold increase between >1.5 and ≤1.65 is indicated by four stars (****))
231 to 233,"CCN(CC)C1CN(c2ccc3nc(-c4cc5c(C)nc(C)cn5n4)cc(=O)n3c2)C1 [Compound 758, 7-[3-(diethylamino)azetidin-1-yl]-2-(4,6-dimethylpyrazolo[1,5-a]pyrazin-2-yl)-4H-pyrido[1,2-a]pyrimidin-4-one]",0.3 to 1,–,*** (a fold increase between >1.35 and ≤1.5 is indicated by three stars (***))
235 to 237,"Cc1cn2nc(-c3cc(=O)n4cc(N5CC(N6CCCC6)C5)ccc4n3)cc2c(C)n1 [Compound 759, 2-(4,6-dimethylpyrazolo[1,5-a]pyrazin-2-yl)-7-[3-(pyrrolidin-1-yl)azetidin-1-yl]-4H-pyrido[1,2-a]pyrimidin-4-one]",0.1 to 0.3,*** (an EC1.5× between >0.3 μM and ≤1 μM is indicated by three stars (***)),***** (a fold increase >1.65 is indicated by five stars (*****))

Structure (SMILES),melting point [°C],EC (1.5-fold increase) [1] [µM],EC1.5x for Smn protein expression [2],maximum fold (Fold) increase of Smn protein [2]
"Cc1cn2cc(-c3cc(=O)n4cc(C5=CCNCC5)ccc4n3)cc2c(C)n1 [Compound 743, 2-(1,3-dimethylpyrrolo[1,2-a]pyrazin-7-yl)-7-(1,2,3,6-tetrahydropyridin-4-yl)-4H-pyrido[1,2-a]pyrimidin-4-one]",189 to 191,< 0.1,**** (an EC1.5x≤0.3 μM is indicated by four stars (****)),***** (a fold increase >1.65 is indicated by five stars (*****))
